Source: paper PMC11284790, “Targeting Myeloperoxidase Ameliorates Gouty Arthritis: A Virtual Screening Success Story” (Journal of Medicinal Chemistry, 2024)

What was measured:
MSU-induced paw edema = experiment: MSU-induced paw edema, intraperitoneal treatment; format: in vivo; settings: for effect on paw edema over time: i.p. 30 min before MSU, mefenamic acid 30 mg/kg, RL6 3, 10, 30, RL7 0.3, 3, 30, ZINC9089086 3, 10, 30 mg/kg, 6 h
Experimental: MSU-induced edema was performed as previously described.[22] The compounds were prepared by dilution in a solution containing 0.5% Tween 80 and 5% DMSO and then resuspended in PBS prior to administration. The animals were treated intraperitoneally (i.p.) with the following substances: vehicle (VEH: 5% DMSO; 0.5% Tween 80 in PBS), mefenamic acid (a nonsteroidal anti-inflammatory drug at a dosage of 30 mg/kg), RL6 (at doses of 3, 10, and 30 mg/kg), RL7 (at doses of 0.3, 3, and 30 mg/kg), or ZINC9089086 (at doses of 3, 10, and 30 mg/kg).[31] After 30 min, the mice were anesthetized using inhaled isoflurane (2% v/v in O2). A hypodermic syringe with a 31-gauge needle (BD, Franklin Lakes, NJ, USA) was used to administer the vehicle (VEH: PBS, 30 μL) or MSU (1.5 mg/30 μL) via the intraplantar route (i.pl.), into the right hind paw (Figure 9).
Paw volume (mL) was measured at various time points, including before injection (baseline, B), […] 1, 2, 3, 4, 5, and 6 h following MSU injection using a plethysmometer (Ugo Basile, Comerio, Italy) (Figure 7). For this, the injected hind paw was immersed into the dipping solution (6 mM NaCl diluted in distilled water and added with 2 mL/L of a wetting compound provided by the manufacturer) until the ankle. The extent of edema was quantified as a change in paw volume (Δ mL) by subtracting the basal paw volume from the volume of the paw measured at each time point. To evaluate the antiedematogenic effect of orally administered MPO inhibitors (p.o.), the animals were fasted for 1 h and then treated with equimolar doses of the following substances: vehicle (VEH: 5% DMSO; 0.5% tween 80 in PBS), mefenamic acid (30 mg/kg), RL 6 (33 mg/kg), RL 7 (54 mg/kg), RL 21 (30 mg/kg), or ZINC9089086 (34 mg/kg). After 1 h, the anesthetized mice (2% isoflurane, v/v in O2) received either the vehicle (PBS, 30 μL, i.pl.) or 1.5 mg/30 μL MSU (i.pl.). The paw volume was evaluated at the same time points as previously described. The percentage of edema inhibition by the compounds was calculated discounting the paw volume of mice that received oral or intraperitoneal vehicle and PBS intraplantar (VEH + VEH).

Human leukocyte MPO [1] = target: T1, Human leukocyte MPO (Homo sapiens, UniProt P05164); experiment: Oxidation of the compounds by MPO/H2O2 (intrinsic fluorescence decay); format: biochemical; set-up: Human leukocyte MPO (EC 1.7.1.11) was purchased from Planta Natural Products; purchased Planta Natural Products (Vienna, Austria); host or cells: human leukocytes; settings: 1 μM compound; for compound oxidation by MPO/H2O2 in the presence of chloride (fluorescence) / compound oxidation by MPO/H2O2 in the absence of chloride (fluorescence): 10 nM MPO; for compound oxidation by MPO/H2O2 in the presence of chloride (fluorescence): 40 μM H2O2, 140 mM NaCl; for compound oxidation by MPO/H2O2 in the absence of chloride (fluorescence): 40 μM H2O2, no chloride
Experimental: Changes in the absorption and fluorescence spectra of RL6 and RL7 were determined by incubating 1 μM compounds in 0.3% DMSO and phosphate buffer (20 mM, pH 7.4) with or without MPO (10 nM), diethylenetriaminepentaacetic acid (100 μM), taurine (5 mM), cetyltrimethylammonium chloride (0.03%), and NaCl (140 mM). In the chloride-free system, NaCl and taurine were omitted, and cetyltrimethylammonium chloride was replaced by cetyltrimethylammonium bisulfate. The reaction was performed in the absence or presence of Tyr (50 μM) and was started by adding 40 μM hydrogen peroxide. RL6 and RL7 consumption was monitored by fluorescence at λex = 413/λem = 603 nm for RL6 or λex = 306/λem = 603 nm for RL7 in a microplate reader.

[2] = Stopped-flow reaction of compound with HOCl (fluorescence decay); settings: 20 μM compound, 250 μM HOCl, up to 1 s
Experimental: The fast oxidation of RL7 was monitored in a stopped-flow spectrophotometer (Applied Photophysics SX20) using the intrinsic RL7 fluorescence (λex = 306 nm and λem = above 340 nm). The reaction of RL7 (20 μM in 0.3% DMSO) with HOCl (250 μM) was performed in phosphate buffer (20 mM, pH 7.4), diethylenetriaminepentaacetic acid (100 μM), and NaCl (140 mM). Data were obtained within 1 s.

Human leukocyte MPO [3] = target: T1, Human leukocyte MPO; experiment: Reversibility test (residual peroxidase activity after 200-fold dilution); format: biochemical; set-up: Human leukocyte MPO (EC 1.7.1.11) was purchased from Planta Natural Products; purchased Planta Natural Products (Vienna, Austria); host or cells: human leukocytes; settings: 100 nM MPO, 20 μM inhibitor, 30 min, then 200-fold dilution
Experimental: Reversibility of the inhibition was analyzed by peroxidase residual activity.[77] […] After incubation, the system was diluted 200-fold using acetate buffer ([…], pH 5.4) in the presence of TMB (2 mM dissolved in 10% dimethylformamide). After a new hydrogen peroxide addition (2 μM), the oxidation of TMB was quantified at 655 nm.

[4] = system: PARP1 in RPE1-hTERT cells; experiment: PARP1 off-target assay: H2O2-induced ADP-ribosylation; format: cell-based; settings: RL6 1, 10 and 50 μM; olaparib 10 μM; 600 μM H2O2 for 10 min
Experimental: After 1 h of pretreatment, the cells were treated with 600 μM H2O2 (Sigma) in PBS for 10 min at 37 °C. Cells were lysed in preheated Laemmli buffer devoid of beta-mercaptoethanol and bromophenol blue, and the lysates were boiled for 15 min. Protein concentration was determined using a BCA protein quantification kit (Pierce) and normalized. Beta-mercaptoethanol and bromophenol blue were then added, and the lysates were boiled again for 15 min. Proteins were separated in a 10% SDS-PAGE gel and then transferred to nitrocellulose membranes (Bio-Rad). […] Membranes were incubated with ECL Prime (Amersham), and the signals were detected using a Chemidoc MP Imaging System (Bio-Rad). […] Signals were quantified using ImageJ software.
(C) ADP-ribosylation in RPE1-hTERT cells was
triggered by H2O2 (600 µM) for 10 min. (D) Gel densitometry quantified by ImageJ
software, n=3. A concentration of 0.1% DMSO was used.

T1 sequence (P05164 279-745 limits assumed): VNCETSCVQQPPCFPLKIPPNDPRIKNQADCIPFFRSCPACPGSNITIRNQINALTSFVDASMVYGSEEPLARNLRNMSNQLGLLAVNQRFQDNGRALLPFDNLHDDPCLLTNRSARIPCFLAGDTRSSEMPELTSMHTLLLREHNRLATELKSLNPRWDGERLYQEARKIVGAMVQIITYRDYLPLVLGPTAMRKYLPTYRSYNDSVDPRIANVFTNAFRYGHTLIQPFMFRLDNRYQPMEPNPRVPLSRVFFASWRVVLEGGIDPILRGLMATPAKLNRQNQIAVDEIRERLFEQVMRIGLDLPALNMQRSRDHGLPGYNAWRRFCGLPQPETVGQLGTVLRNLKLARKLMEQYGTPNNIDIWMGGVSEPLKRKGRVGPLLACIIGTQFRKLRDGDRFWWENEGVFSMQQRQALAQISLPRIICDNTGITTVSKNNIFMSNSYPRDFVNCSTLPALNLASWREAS
T1 sequence (P05164 165-278 limits assumed): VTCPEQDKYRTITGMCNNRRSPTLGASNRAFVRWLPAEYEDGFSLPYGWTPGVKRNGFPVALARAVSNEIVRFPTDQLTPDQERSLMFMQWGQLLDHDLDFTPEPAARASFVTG

## CN1CCc2nc3sc(C(=O)Nc4cccc(C#N)c4)c(N)c3cc2C1 [RL7]
MSU-induced paw edema; 3 mg/kg i.p.
  reduction of paw edema (time-dependent AUC) vs VEH + MSU: 82.8%
MSU-induced paw edema; 30 mg/kg i.p.
  reduction of paw edema (time-dependent AUC) vs VEH + MSU: 90.2%
MSU-induced paw edema
  effect on paw edema over time: inhibited paw edema at all of the tested doses
Human leukocyte MPO [1]
  compound oxidation by MPO/H2O2 in the presence of chloride (fluorescence): further consumed in the full reaction system in the presence of chloride
  compound oxidation by MPO/H2O2 in the absence of chloride (fluorescence): not further enhanced by hydrogen peroxide/MPO
[2]
  reaction with HOCl (fluorescence decay): rapidly reacts with HOCl

## Nc1cc2c3c(cccc3c1)C(=O)N(N)C2=O [RL6]
MSU-induced paw edema; 10 mg/kg i.p.
  reduction of paw edema (time-dependent AUC) vs VEH + MSU: 80.4%
MSU-induced paw edema; 30 mg/kg i.p.
  reduction of paw edema (time-dependent AUC) vs VEH + MSU: 83.2%
MSU-induced paw edema; during the in vivo tests
  acute toxicity observed in mice: no sign of acute toxicity
MSU-induced paw edema
  effect on paw edema over time: significantly prevented paw edema
Human leukocyte MPO [1]
  compound oxidation by MPO/H2O2 in the presence of chloride (fluorescence): did not undergo any alteration
  compound oxidation by MPO/H2O2 in the absence of chloride (fluorescence): did not undergo any alteration
Human leukocyte MPO [1]; 50 μM tyrosine
  compound oxidation by MPO/H2O2 in the presence of tyrosine (fluorescence): No oxidation occurred
Human leukocyte MPO [3]
  reversibility of MPO inhibition (residual peroxidase activity): reversible inhibition
[4]
  inhibition of H2O2-induced ADP-ribosylation: failed to inhibit
